Laboratory results as given in US4205163A, “Tylosin derivatives” (Sanraku-Ocean Co., Ltd., priority 1977, dated 1980).
Converted amounts (≈) assume the structure as drawn.

Tests used:
Experiment in all cases: antimicrobial activity, broth dilution method
Type in all cases: cell-based
[1] = tested on: Streptococcus pyogenes MH-771; details: Streptococcus pyogenes, MH771, Streptococcus pyogenes MH-771, drug-resistant clinical isolate; read-out: minimum inhibitory concentration (MIC)
Protocol: (§1) Antimicrobial activity of the new antibiotics according to the present invention was measured on various pathogenic microorganisms by the broth dilution mehtod. Tab. […] The new antibiotics show a similar antimicrobial spectrum to that of tylosin as shown in Tab. 4. All the compounds have an excellent antimicrobial activity mainly on gram-positive bacteria. […] Test microorganisms with an asterisk mark (*) in Tab. 4 are all drug-resistant strains that were clinically isolated. More in detail, Staphylococcus aureus MS-8710 is resistant to tylosin, penicillin, tetracycline, erythromycin and leucomycin. Staphylococcus aureus MS-9931 is resistant to tylosin, penicillin, erythromycin, tetracycline, leucomycin, spiramycin and josamycin. And also Streptococcus piogenes is resistant to tylosin, erythromycin, oleandomycin and leucomycin.

[2] = tested on: Staphylococcus aureus MS-9937; details: MS9937; Staphylococcus aureus MS-9937, drug-resistant clinical isolate; read-out: minimum inhibitory concentration (MIC)
Protocol: as §1

[3] = tested on: Bacillus cereus ATCC 9634; details: Bacillus cereus, ATCC9634, Bacillus cereus ATCC 9634; broth dilution; read-out: minimum inhibitory concentration (MIC)
Protocol: as §1

[4] = tested on: Staphylococcus aureus MS-8710; details: Staphylococcus aureus, MS8710, Staphylococcus aureus MS-8710, drug-resistant clinical isolate; read-out: minimum inhibitory concentration (MIC)
Protocol: as §1

Sarcina lutea ATCC 9341 = details: Micrococcus luteus, ATCC9341, Sarcina lutea ATCC 9341, read-out: minimum inhibitory concentration (MIC)
Protocol: as §1

[5] = tested on: Staphylococcus aureus MS-9931; details: MS9931; Staphylococcus aureus MS-9931, drug-resistant clinical isolate; read-out: minimum inhibitory concentration (MIC)
Protocol: as §1

[6] = tested on: Staphylococcus aureus SMITH; details: Staphylococcus aureus, Staphylococcus aureus SMITH; broth dilution; read-out: minimum inhibitory concentration (MIC)
Protocol: as §1

[7] = tested on: Staphylococcus aureus FDA-209P; details: Staphylococcus aureus, FDA209P, Staphylococcus aureus FDA-209P; broth dilution; read-out: minimum inhibitory concentration (MIC)
Protocol: as §1

Structure (SMILES) | MIC [1] | MIC [2] | MIC [3] | MIC [4] | MIC (Sarcina lutea ATCC 9341) | MIC [5] | MIC [6] | MIC [7]
CCC1OC(=O)CC(OC(C)=O)C(C)C(OC2OC(C)C(OC3CC(C)(O)C(OC(=O)C(OC(C)=O)c4ccc(OC(C)=O)cc4)C(C)O3)C(N(C)C)C2O)C(CC=O)CC(C)C(=O)C=CC(C)=CC1COC1OC(C)C(O)C(OC)C1OC (stereo not drawn) [Compound 21, 3-acetyl-4"-[α-acetoxy-(4-acetoxyphenyl)acetyl]tylosin] | 12.5 µg/mL (≈ 10.5 µM) | 50 µg/mL (≈ 41.9 µM) | 0.78 µg/mL (≈ 0.654 µM) | 50 µg/mL (≈ 41.9 µM) | 0.39 µg/mL (≈ 0.327 µM) | 50 µg/mL (≈ 41.9 µM) | 0.78 µg/mL (≈ 0.654 µM) | 0.78 µg/mL (≈ 0.654 µM)
CCC1OC(=O)CC(OC(C)=O)C(C)C(OC2OC(C)C(OC3CC(C)(O)C(OC(=O)C(C)c4ccccc4)C(C)O3)C(N(C)C)C2O)C(CC=O)CC(C)C(=O)C=CC(C)=CC1COC1OC(C)C(O)C(OC)C1OC (stereo not drawn) [Compound 15, 3-acetyl-4"-α-phenylpropionyltylosin] | 12.5 µg/mL (≈ 11.5 µM) | 25 µg/mL (≈ 22.9 µM) | 0.78 µg/mL (≈ 0.715 µM) | 25 µg/mL (≈ 22.9 µM) | 0.19 µg/mL (≈ 0.174 µM) | 25 µg/mL (≈ 22.9 µM) | 0.39 µg/mL (≈ 0.358 µM) | 0.39 µg/mL (≈ 0.358 µM)
CCC1OC(=O)CC(O)C(C)C(OC2OC(C)C(OC3CC(C)(O)C(O)C(C)O3)C(N(C)C)C2OC(C)=O)C(CC=O)CC(C)C(=O)C=CC(C)=CC1COC1OC(C)C(OC(=O)CCl)C(OC)C1OC (stereo not shown) [Compound 1, 2'-acetyl-4'"-monochloracetyltylosin] | 200 µg/mL (≈ 193 µM) | 200 µg/mL (≈ 193 µM) | 1.56 µg/mL (≈ 1.51 µM) | > 200 µg/mL | 0.78 µg/mL (≈ 0.754 µM) | 200 µg/mL (≈ 193 µM) | 1.56 µg/mL (≈ 1.51 µM) | 1.56 µg/mL (≈ 1.51 µM)
CCC1OC(=O)CC(OC(C)=O)C(C)C(OC2OC(C)C(OC3CC(C)(O)C(OC(=O)C(Cc4ccccc4)OC(C)=O)C(C)O3)C(N(C)C)C2O)C(CC=O)CC(C)C(=O)C=CC(C)=CC1COC1OC(C)C(O)C(OC)C1OC [Compound 27, 3-acetyl-4"-L-[(α-acetoxy-β-phenyl)propionyl]tylosin] | 25 µg/mL (≈ 21.8 µM) | 50 µg/mL (≈ 43.5 µM) | 0.78 µg/mL (≈ 0.679 µM) | 50 µg/mL (≈ 43.5 µM) | 0.39 µg/mL (≈ 0.34 µM) | 50 µg/mL (≈ 43.5 µM) | 0.78 µg/mL (≈ 0.679 µM) | 0.78 µg/mL (≈ 0.679 µM)
CCC1OC(=O)CC(OC(C)=O)C(C)C(OC2OC(C)C(OC3CC(C)(O)C(O)C(C)O3)C(N(C)C)C2OC(C)=O)C(CC=O)CC(C)C(=O)C=CC(C)=CC1COC1OC(C)C(OC(=O)C(Cl)(Cl)Cl)C(OC)C1OC (stereo not shown) [Compound 4, 3,2'-diacetyl-4'"-trichloroacetyltylosin] | 100 µg/mL (≈ 87.3 µM) | 100 µg/mL (≈ 87.3 µM) | 1.56 µg/mL (≈ 1.36 µM) | 100 µg/mL (≈ 87.3 µM) | 0.39 µg/mL (≈ 0.34 µM) | 100 µg/mL (≈ 87.3 µM) | 1.56 µg/mL (≈ 1.36 µM) | 1.56 µg/mL (≈ 1.36 µM)

Continued, values first:

MIC [1] | MIC [2] | MIC [3] | MIC [4] | MIC (Sarcina lutea ATCC 9341) | MIC [5] | MIC [6] | MIC [7] | Structure (SMILES)
6.25 µg/mL (≈ 5.88 µM) | 12.5 µg/mL (≈ 11.8 µM) | 0.78 µg/mL (≈ 0.734 µM) | 12.5 µg/mL (≈ 11.8 µM) | 0.19 µg/mL (≈ 0.179 µM) | 25 µg/mL (≈ 23.5 µM) | 0.39 µg/mL (≈ 0.367 µM) | 0.39 µg/mL (≈ 0.367 µM) | CCC(C(=O)OC1C(C)OC(OC2C(C)OC(OC3C(CC=O)CC(C)C(=O)C=CC(C)=CC(COC4OC(C)C(O)C(OC)C4OC)C(CC)OC(=O)CC(O)C3C)C(O)C2N(C)C)CC1(C)O)c1ccccc1 (stereo not drawn) [Compound 16, 4"-α-phenyl-n-butyryltylosin]
25 µg/mL (≈ 24 µM) | 25 µg/mL (≈ 24 µM) | 1.56 µg/mL (≈ 1.5 µM) | 25 µg/mL (≈ 24 µM) | 0.39 µg/mL (≈ 0.374 µM) | 25 µg/mL (≈ 24 µM) | 0.78 µg/mL (≈ 0.748 µM) | 0.78 µg/mL (≈ 0.748 µM) | CCCCCCCC(=O)OC1C(C)OC(OC2C(C)OC(OC3C(CC=O)CC(C)C(=O)C=CC(C)=CC(COC4OC(C)C(O)C(OC)C4OC)C(CC)OC(=O)CC(O)C3C)C(O)C2N(C)C)CC1(C)O (stereo not shown) [Compound 9, 4"-n-caprylyl(or n-octanoyl)tylosin]
3.13 µg/mL (≈ 2.84 µM) | 6.25 µg/mL (≈ 5.68 µM) | 0.78 µg/mL (≈ 0.709 µM) | 12.5 µg/mL (≈ 11.4 µM) | 0.19 µg/mL (≈ 0.173 µM) | 6.25 µg/mL (≈ 5.68 µM) | 0.39 µg/mL (≈ 0.354 µM) | 0.39 µg/mL (≈ 0.354 µM) | CCC1OC(=O)CC(O)C(C)C(OC2OC(C)C(OC3CC(C)(O)C(OC(=O)CSc4ccc(Cl)cc4)C(C)O3)C(N(C)C)C2O)C(CC=O)CC(C)C(=O)C=CC(C)=CC1COC1OC(C)C(O)C(OC)C1OC (stereo not shown) [Compound 37, 4"-(4-chlorophenyl)thioacetyltylosin]
